The values below come from US5037822A, “1-arylsulphonyl-2-pyrrolidinethione or 1-arylsulphonyl-2-piperidinethione derivatives, process for the preparation thereof their application as medicinal products and compositions containing them” (Roussel-Uclaf, priority 1989, dated 1991).

The structures appear in SMILES notation. pIC50: −log10 of the molar value. Read-outs that look alike come from different tables or passages of the source.

Experiment [1] has as its system isolated guinea pig ileum. Description: Agonist action on isolated guinea pig ileum. The class given is cell-based. Conditions: Cavia porcellus, read-out: Agonist action pD2 (converted). Here is the method: (§1) The interaction of the compounds with different receptors was assessed on isolated guinea pig ileum according to the following method.
(§2) Guinea pig ileum segments measuring 2.5-3 cm were washed and immediately suspended in a bath containing 10 ml of Tyrode's solution at 37° C. aerated with a mixture of oxygen (95%) and carbon dioxide (5%). After a stabilization period of at least 30 minutes, the contractions were recorded, maintaining the preparation under constant tension of 1 g using a gauge connected to a polygraph. The agonist action was assessed by leaving the compound in contact with the isolated tissue for a period necessary for expressing the maximal contraction; the preparation was then washed with Tyrode's solution. The next dose was added to the bath only after the preparation had returned to its base line. As a reference product, arecoline was employed. The antagonist action was assessed on contractions induced by acetylchloine (1×10^-6 M), histamine (1×10^-5 M) and barium chloride (2×10^-4 M). Atropine, diphenhydramine and papaverine were employed as reference products. The contact time before adding the agonist was one minute.
(§3) For each compound, the dose-response curves are obtained with 4 to 6 different concentrations and 3 to 5 independent tests. The agonist activity is expressed by pD2 (negative logarithm of the dose which produces 50% of the maximum effect). The antagonist activity is expressed by IC50 (concentration inhibiting 50% of the maximal response).

The test system of experiment [2] is cholinomimetic effects induced by carbachol. Description: In vivo anticholinergic action: inhibition of carbachol-induced cholinomimetic effects in mice. Also noted: species or system CD1 male mice. Conditions: for ED50 / ED (1 C): Mus musculus, ip; for ED (1 C): read-out: Body temperature: dose increasing by 1° C. the hypothermic effect induced by the cholinergic agent. As for the experimental part: The anticholinergic activity of the compounds was determined by assessing the capacity to inhibit the cholinomimetic effects induced by carbachol. Atropine sulphate was employed as a reference product.
CD1 male mice weighing 25 to 30 g were used. They were distributed in groups of 6 animals and treated intraperitoneally with scalar doses of the products or 0.25% Methocel for the controls. 12 animals were used for each dose. 30 minutes after administration of the compounds, the mice were injected subcutaneously with 1 mg/kg of carbachol dissolved in physiological saline.
Each animal was examined 30 minutes after the injection of carbachol to assess the presence of diarrhoea, salivation and eye watering; in addition, the body temperature was measured by means of a thermocouple inserted 1.5 cm into the rectum.
For each compound, we have determined and recorded in the following table the dose capable of inhibiting the appearance of the carbachol-induced cholinometric symptoms in 50% of the animals, and of increasing by 1° C. the hypothermic effect induced by the cholinergic agent.

In experiment [3] the test system is isolated guinea pig ileum, contractions induced by acetylcholine. As to the kind of experiment: Antagonist action on acetylcholine-induced contractions of isolated guinea pig ileum. The class given is cell-based. The following applies: Cavia porcellus, read-out: Antagonist to ACh, IC50. As for the experimental part:
as §1, §2, §3

A further experiment has as its target T1, Muscarinic receptor 1 (Rattus norvegicus, UniProt P08482).
T1 construct: cortices removed from the brains of male rats; tissue Iffa Credo (animals); host or cells: cerebral cortex of male rats weighing 150 to 200 g, homogenate
T1 sequence (P08482 1-460): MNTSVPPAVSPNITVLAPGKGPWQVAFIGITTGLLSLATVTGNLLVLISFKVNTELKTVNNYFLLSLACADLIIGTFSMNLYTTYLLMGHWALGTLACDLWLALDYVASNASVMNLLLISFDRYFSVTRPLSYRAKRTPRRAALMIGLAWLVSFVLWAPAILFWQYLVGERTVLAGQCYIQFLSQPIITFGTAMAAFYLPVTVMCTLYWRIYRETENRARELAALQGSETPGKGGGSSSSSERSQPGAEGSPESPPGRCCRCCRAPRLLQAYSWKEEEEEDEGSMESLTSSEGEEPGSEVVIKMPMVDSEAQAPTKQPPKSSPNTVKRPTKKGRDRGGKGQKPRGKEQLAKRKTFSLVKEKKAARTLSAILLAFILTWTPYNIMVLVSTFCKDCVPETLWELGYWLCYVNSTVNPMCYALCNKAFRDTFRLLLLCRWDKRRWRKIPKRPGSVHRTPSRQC
Description: Binding to muscarinic receptor 1 ([3H]pirenzepine). Conditions: 0.25 nM [3H]pirenzepine, rat cortex homogenate, pH 7.4, 60 min, 25° C.; read-out: Affinity for M1 muscarinic receptor, IC50. Here is the method: Preparation of this is carried out from cortices removed from the brains of male rats weighing 150 to 200 g (Iffa Credo), ground in a Polytron in a 10 mM Na/K buffer pH 7.4. After incubation (0.5 ml aliquots of homogenate) for 60 minutes at 25° C. in the presence of 0.25 nM [^3 H]pirenzepine, either alone, or with the test product, or with an excess of 10^-5 M pirenzepine (to determine the non-specifically bound radioactivity), the incubates are cooled and filtered.
The filtration is performed on Whatman GF/C filters prewashed in a 0.05% strength solution of polyethylenimine. The filters are rinsed with 3×5 ml of 10 mM Na/K phosphate buffer pH 7.4 and the measurements are then performed by liquid scintillation.
(§4) The results are expressed as an IC50 (concentration needed to inhibit by 50% the specifically bound radioactivity).

A further experiment has as its target Muscarinic receptor 2. As to the kind of experiment: Binding to muscarinic receptor 2 ([3H]quinuclidinyl benzylate). Conditions: 0.3 nM [3H]quinuclidinyl benzylate, rat brain, pH 7.5, 60 min, 25° C.; read-out: Affinity for M2 muscarinic receptor, IC50. As for the experimental part:
The preparation is performed from brains of male rats weighing 150 to 200 g (Iffa Credo).
The brains are ground (Teflon-glass) in 0.32M sucrose solution. The homogenate is centrifuged for 10 minutes at 1,000 g (0°-4° C.).
The supernatant obtained is collected and centrifuged at 30,000 g for 15 minutes (0°-4° C.).
The pellet is resuspended in 50 mM Tris buffer pH 7.5 and the new homogenate is centrifuged again at 30,000 g for 15 minutes (0°-4° C.).
After removal of the supernatant, the pellets may be used immediately or stored for up to 1 month at -30° C.
For an experiment, the pellets are first thawed, if necessary, at room temperature and resuspended using a Dounce in 50 mM Tris buffer pH 7.5. 2 ml aliquots are incubated for 60 minutes at 25° C. in the presence of 0.3 nM [^3 H]quinuclidinyl benzylate, either alone, or with the test product, or with 10^-5 M benzatropine to determine the non-specifically bound radioactivity.
At the end of the incubation period, the incubate tubes are cooled to 4° C. and filtered rapidly on Whatman GF/C filters. The filters are rinsed with 3×5 ml of 50 mM Tris buffer pH 7.5 and the measurements are then performed by liquid scintillation (Henry I. Yamamura, Solomon H. Snyder, Proc. Nat. Acad. Sc. (1974) 71, No. 5, 1725-1729).
as §4

Experiment [4] concerns isolated guinea pig ileum, contractions induced by histamine. As to the kind of experiment: Antagonist action on histamine-induced contractions of isolated guinea pig ileum. The class given is cell-based. Conditions: Cavia porcellus; histamine 1×10^-5 M, contact time one minute, 37° C.; read-out: Antagonist to Histam., IC50. Here is the method:
as §1
as §2, with “The antagonist action was assessed on contractions induced by acetylchloine (1×10^-6 M), histamine (1×10^-5 M) and barium chloride (2×10^-4 M). Atropine, diphenhydramine and papaverine were employed as reference products.” left out
as §3

The subject of experiment [5] is isolated guinea pig ileum, contractions induced by barium chloride. As to the kind of experiment: Antagonist action on barium chloride-induced contractions of isolated guinea pig ileum. The format is cell-based. Conditions: Cavia porcellus, read-out: Antagonist to BaCl2, IC50. As for the experimental part:
as §1, §2, §3

[6] abbreviates: negative logarithm of the dose producing 50% of the maximum effect, 37° C.
Setting [7] is: barium chloride 2×10^-4 M, contact time one minute, 37° C.
[8] abbreviates: 30 min before carbachol 1 mg/kg s.c., mice.
The mark [9] stands for this setting: 30 min before carbachol 1 mg/kg s.c., mice, read-out: Dose inhibiting carbachol-induced diarrhoea in 50% of the animals.
Where [10] appears, read: 30 min before carbachol 1 mg/kg s.c., mice, read-out: Dose inhibiting carbachol-induced eye watering in 50% of the animals.
Setting [11] is: 30 min before carbachol 1 mg/kg s.c., mice, read-out: Dose inhibiting carbachol-induced salivation in 50% of the animals.
The mark [12] stands for this setting: acetylcholine 1×10^-6 M, contact time one minute, 37° C.

In general, pIC50 refers to −log10 of the IC50, conventionally taken in molar units.

For the compound `COC(=O)C1=CCCN(C)C1` [Arecoline, arecoline, reference compound], in experiment [1], the EC50 is 0.209 µM.
Consider `CN1[C@@H]2CC[C@H]1C[C@@H](OC(=O)C(CO)c1ccccc1)C2` (stereo partly shown) [Atropine, reference compound], for which the ED50 turned out to be 0.04 mg/kg in experiment [2] (read-out: Dose inhibiting carbachol-induced diarrhoea in 50% of the animals), 0.05 mg/kg in experiment [2] (read-out: Dose inhibiting carbachol-induced eye watering in 50% of the animals) and 0.06 mg/kg in experiment [2] (read-out: Dose inhibiting carbachol-induced salivation in 50% of the animals). Moreover, the pIC50 in experiment [3] is 8.02.
Turning to `C[N+](C)(C)CCOC(N)=O` [Carbachol, carbachol, reference compound], in experiment [2] (1 mg/kg s.c., control mice), the “cholinomimetic symptoms induced by carbachol” value was “induced diarrhoea, salivation and eye watering in all the control mice”; the “decrease in rectal temperature induced by carbachol” value is “approximately 2.5 °C”.
For the compound `CCN(CC)c1ccc(S(=O)(=O)N2CCCC2=S)cc1` [Example 1, 1-[4-(Diethylamino)benzenesulphonyl]-2-pyrrolidinethione], the pIC50 was 7.37 on Muscarinic receptor 1; 5.66 on Muscarinic receptor 2; under 5.00 in experiment [4]; under 5.00 in experiment [5] (setting [7]); 6.24 in experiment [3] (setting [12]). For the same compound, the EC50 in experiment [1] (setting [6]) was over 10 µM. Further, the ED (1 C) in experiment [2] (setting [8]) was over 50 mg/kg. Further, the ED50 in experiment [2] (setting [9]) is 5 mg/kg; in experiment [2] (setting [10]), over 50 mg/kg; in experiment [2] (setting [11]), over 50 mg/kg.
Consider `CCN(CC)c1ccc(S(=O)(=O)N2CCCCC2=S)cc1` [Example 2, 1-[4-(diethylamino)benzenesulphonyl]-2-piperidinethione], for which the pIC50 at Muscarinic receptor 1 is 7.14; at Muscarinic receptor 2, 5.72; in experiment [4], under 5.00; in experiment [5] (setting [7]), under 5.00; in experiment [3] (setting [12]), 6.47. Besides, in experiment [1] (setting [6]), the EC50 is over 10 µM. Besides, in experiment [2] (setting [8]), the ED (1 C) was over 50 mg/kg. The results for the ED50 in experiment [2] (setting [9]), in experiment [2] (setting [10]) and in experiment [2] (setting [11]) were 8 mg/kg, over 50 mg/kg and over 50 mg/kg, respectively.
Regarding `O=S(=O)(c1ccc(N2CCCCC2)cc1)N1CCCC1=S` [Example 3, 1-[4-(1-piperidyl)benzenesulphonyl]-2-pyrrolidinethione], the pIC50 at Muscarinic receptor 1 is 7.60; at Muscarinic receptor 2, 6.19; in experiment [5] (setting [7]) it was under 5.00; in experiment [3] (setting [12]), 5.59. Further, the EC50 in experiment [1] (setting [6]) is over 10 µM. Moreover, the ED (1 C) in experiment [2] (setting [8]) was over 50 mg/kg. The figures for the ED50 in experiment [2] (setting [9]), in experiment [2] (setting [10]) and in experiment [2] (setting [11]) were 3 mg/kg, over 50 mg/kg and over 50 mg/kg, respectively.
For `O=S(=O)(c1ccc(N2CCCCC2)cc1)N1CCCCC1=S` [Example 4, 1-[4-(1-Piperidyl)benzenesulphonyl]-2-piperidinethione], the negative logarithm of the IC50 (pIC50) on Muscarinic receptor 1 was 7.52; at Muscarinic receptor 2 it was 6.24; in experiment [5] (setting [7]), under 5.00; in experiment [3] (setting [12]), 5.44. For the same compound, the EC50 in experiment [1] (setting [6]) was over 10 µM. The ED (1 C) in experiment [2] (setting [8]) is over 50 mg/kg. The ED50 was 7 mg/kg in experiment [2] (setting [9]), over 50 mg/kg in experiment [2] (setting [10]) and over 50 mg/kg in experiment [2] (setting [11]).
As to `O=S(=O)(c1ccc(N2CCCCCC2)cc1)N1CCCC1=S` [Example 5, 1-[4-(1-Hexahydroazepinyl)benzenesulphonyl]-2-pyrrolidinethione], the pIC50 on Muscarinic receptor 1 was 8.00; on Muscarinic receptor 2 it was 6.92; in experiment [5] (setting [7]), under 5.00; in experiment [3] (setting [12]), 6.55. Further, the EC50 in experiment [1] (setting [6]) was over 10 µM. Moreover, the ED (1 C) in experiment [2] (setting [8]) was 12 mg/kg. For the same compound, the ED50 in experiment [2] (setting [9]) was 0.6 mg/kg; in experiment [2] (setting [10]) it was over 50 mg/kg; in experiment [2] (setting [11]), 15 mg/kg.
For the compound `O=S(=O)(c1ccc(N2CCCCCC2)cc1)N1CCCCC1=S` [Example 6, 1-[4-(1-Hexahydroazepinyl)benzenesulphonyl]-2-piperidinethione], the pIC50 was 7.92 on Muscarinic receptor 1, 6.64 on Muscarinic receptor 2, under 5.00 in experiment [5] (setting [7]) and 6.72 in experiment [3] (setting [12]). Moreover, the EC50 in experiment [1] (setting [6]) was over 10 µM. Also, in experiment [2] (setting [8]), the ED (1 C) was over 50 mg/kg. The ED50 was 2 mg/kg in experiment [2] (setting [9]), over 50 mg/kg in experiment [2] (setting [10]) and 40 mg/kg in experiment [2] (setting [11]).
Turning to `COc1ccc(Cc2nccc3cc(OC)c(OC)cc23)cc1OC` [Papaverine, papaverine, reference compound], the pIC50 in experiment [5] is 4.35.
